Calls of active or inactive are those of the source. The rule behind the calls is not given here.
Assays:
[1] = Cytotoxicity against human Huh-7 cells treated for 48 hrs measured by celltitre-glo luminescent assay; assay type: toxicity, cell-based
dengue virus type 2 [2] = experiment: Inhibition of DENV-2 NS5 polymerase incubated for 1 hr measured at 30 uM by fluorescence based alkaline phosphate coupled polymerase assay
dengue virus type 2 [3] = experiment: Antiviral activity against DENV-2 EDEN 3295 infected in 10^5 human Huh-7 cells at 0.3 MOI for 1 hr followed by compound treatment for 48 hrs; assay type: functional, organism-based; details: EDEN 3295, Huh-7
[4] = Selectivity index, ratio of CC50 for human Huh-7 cells to EC50 for antiviral activity against DENV-2 EDEN 3295; assay type: toxicity; details: read-out: Ratio CC50/EC50
dengue virus type 2 [5] = experiment: Antiviral activity against DENV-2 EDEN 3295 infected in 10^5 human Huh-7 cells at 0.3 MOI for 1 hr followed by compound treatment at 10 uM for 48 hrs relative to control; assay type: functional
[6] = (§1) Inhibition of DENV-2 NS5 polymerase incubated for 1 hr measured by fluorescence based alkaline phosphate coupled polymerase assay; set-up: species or system dengue virus type 2
dengue virus type 2 [7] = experiment: Antiviral activity against DENV-2 infected in human Huh-7 cells at MOI 1 assessed as log reduction of intracellular viral titre at 10 uM measured after 60 hrs post infection by RT-PCR analysis; assay type: functional
dengue virus type 2 [8] = experiment: Antiviral activity against DENV-2 infected in human Huh-7 cells at MOI 1 assessed as reduction of intracellular viral titre at 10 uM during infection measured after 48 hrs measured by RT-PCR analysis; assay type: functional, organism-based
dengue virus type 2 [9] = experiment: as §1
dengue virus type 2 [10] = experiment: Antiviral activity against DENV-2 infected with green monkey Vero cells; assay type: functional, organism-based
dengue virus type 2 [11] = experiment: Antiviral activity against DENV-2 infected in human Huh-7 cells assessed as reduction of viral protein NS3 expression at 10 uM for 12 hrs post infection by RT-PCR analysis; assay type: functional, organism-based
dengue virus type 2 [12] = experiment: Antiviral activity against DENV-2 infected in human Huh-7 cells at MOI 1 assessed as reduction of intracellular viral titre at 10 uM measured after 2 hrs post infection by RT-PCR analysis; assay type: functional, organism-based
dengue virus type 2 [13] = experiment: Antiviral activity against DENV-2 infected with hamster BHK-21 cells; assay type: functional, organism-based
[14] = Cytotoxicity against human A549 cells; assay type: toxicity, cell-based
dengue virus type 2 [15] = experiment: Antiviral activity against DENV-2 infected in human Huh-7 cells at MOI 1 assessed as reduction of intracellular viral titre at 10 uM, 2 hr prior to infection measured after 48 hrs measured by RT-PCR analysis; assay type: functional, organism-based; details: time 50.0 hrs
[16] = Cytotoxicity against green monkey Vero cells; assay type: toxicity, cell-based; details: chlorocebus sabaeus
dengue virus type 2 [17] = experiment: Antiviral activity against DENV-2 infected with asian tiger mosquito C6/36 cells; assay type: functional, organism-based
[18] = Cytotoxicity against hamster BHK-21 cells; assay type: toxicity, cell-based, Mesocricetus auratus
[19] = Cytotoxicity against asian tiger mosquito C6/36 cells; assay type: toxicity, cell-based; details: aedes albopictus
[20] = Cytotoxicity against human Huh-7 cells; assay type: toxicity, cell-based
dengue virus type 2 [21] = experiment: Antiviral activity against DENV-2 infected in human Huh-7 cells at MOI 1 assessed as reduction of intracellular viral titre at 10 uM measured after 24 hrs post infection by RT-PCR analysis; assay type: functional, organism-based
dengue virus type 2 [22] = experiment: Antiviral activity against DENV-2 infected with human A549 cells; assay type: functional, organism-based
dengue virus type 2 [23] = experiment: Antiviral activity against DENV-2 infected with human Calu-1 cells; assay type: functional, organism-based
dengue virus type 2 [24] = experiment: Antiviral activity against DENV-2 infected in human Huh-7 cells assessed as reduction of viral protein NS5 expression at 10 uM for 12 hrs post infection by RT-PCR analysis; assay type: functional, organism-based
[25] = Cytotoxicity against human Calu-1 cells; assay type: toxicity, cell-based

Row | Compound | CC50 at 48 h [1] | EC50 (dengue virus type 2 [3]) | selectivity ratio [4] | Activity (dengue virus type 2 [5]) | further results
1 | CS(=O)(=O)Nc1ccc(Oc2cccc(Br)c2)cc1C(=O)NCc1ccccc1 | 66.4 µM | 47.5 µM | 1.39 | – | inhibition (dengue virus type 2 [2]): inactive
2 | CCc1cccc(Oc2ccc(NS(C)(=O)=O)c(C(=O)NCc3ccccc3)c2)c1 | 78.6 µM | 44.9 µM | 1.75 | – | inhibition (dengue virus type 2 [2]): inactive
3 | COc1ccc(CNC(=O)c2cc(Oc3cccc(Br)c3)ccc2NS(=O)(=O)c2cccc3cccnc23)cc1OC | – | – | – | 50% | –
4 | O=C(NCc1ccccc1)c1cc(Oc2cccc(Br)c2)ccc1NS(=O)(=O)c1ccc2c(c1)CCO2 | – | – | – | 32.5% | –
5 | CCCOc1ccc(NS(=O)(=O)c2cccc3cccnc23)c(C(=O)N(CC)Cc2ccccc2)c1 | – | – | – | 25% | –
6 | CCCOc1ccc(NS(=O)(=O)c2cccc3cccnc23)c(C(=O)NC2CC2)c1 | > 100 µM | 8.7 µM | > 11 | – | –
7 | CCc1cccc(Oc2ccc(NS(=O)(=O)c3cccc4cccnc34)c(C(=O)NCc3ccccc3)c2)c1 | > 100 µM | 3 µM | > 32.8 | – | –
8 | NC(=O)c1cc(Oc2cccc(Br)c2)ccc1NS(=O)(=O)c1cccc2cccnc12 | – | – | – | 27.5% | –
9 | CCCOc1ccc(NS(=O)(=O)c2cccc3ccccc23)c(C(=O)NCc2ccccc2)c1 | – | – | – | 0% | –
10 | CCc1cccc(Oc2ccc(NS(C)(=O)=O)c(C(=O)N[C@H](C)c3ccccc3)c2)c1 | 51.1 µM | 17.9 µM | 2.85 | – | inhibition (dengue virus type 2 [2]): inactive
11 | O=C(OC1=CS(=O)(=O)Nc2ccc(Oc3ccccc3Br)cc21)c1ccc(F)c(F)c1 | – | – | – | – | IC50 [6]: 18.4 µM
12 | O=C(NCc1ccccc1)c1ccccc1NS(=O)(=O)c1cccc2cccnc12 | – | – | – | 0% | –
13 | CCCOc1ccc(NS(=O)(=O)c2cccc3cccnc23)c(C(=O)N2CCc3ccccc3C2)c1 | > 100 µM | 6.1 µM | > 16.4 | – | –
14 | CCCOc1ccc(NS(=O)(=O)c2cccc3cccnc23)c(C(=O)NCCc2ccccc2)c1 | > 100 µM | 2.2 µM | > 45.5 | – | –
15 | O=C(Nc1ccccc1)c1cc(Oc2cccc(Br)c2)ccc1NS(=O)(=O)c1cccc2cccnc12 | 64.7 µM | 4.4 µM | 14.7 | – | –
16 | CCc1cccc(Oc2ccc(NS(C)(=O)=O)c(C(=O)NCc3ccc(F)c(F)c3)c2)c1 | 41.1 µM | 33.9 µM | 1.21 | – | inhibition (dengue virus type 2 [2]): inactive
17 | CCCOc1ccc(NS(=O)(=O)c2cccc3cccnc23)c(C(=O)NCCCc2ccccc2)c1 | > 100 µM | 3.9 µM | > 25.6 | – | –
18 | CCCOc1ccc(NS(=O)(=O)c2cccc3cccnc23)c(C(=O)NC2CCC2)c1 | > 100 µM | 2.5 µM | > 40 | – | –
19 | CCCOc1cc(C(=O)NCc2ccccc2)ccc1NS(=O)(=O)c1cccc2cccnc12 | – | – | – | 0% | –
20 | O=C(NCc1ccccc1)c1cc(F)ccc1NS(=O)(=O)c1cccc2cccnc12 | – | – | – | 0% | –

Row | Compound | CC50 at 48 h [1] | EC50 (dengue virus type 2 [3]) | selectivity ratio [4] | Activity (dengue virus type 2 [5]) | further results
21 | CCCOc1ccc(NS(=O)(=O)c2cccc3cccnc23)c(C(=O)NCCN2CCCCC2)c1 | – | – | – | 20% | –
22 | O=C(NCc1ccccc1)c1cc(OCC2CCCCC2)ccc1NS(=O)(=O)c1cccc2cccnc12 | – | – | – | 45% | –
23 | O=C(NCc1ccccc1)c1cc(Oc2cccc(Br)c2)ccc1NS(=O)(=O)c1cccc2cccnc12 | > 100 µM | 7.3 µM | > 13.6 | – | –
24 | O=C(NCc1ccccc1)c1cc(Oc2ccccc2)ccc1NS(=O)(=O)c1cccc2cccnc12 | > 100 µM | 3.9 µM | > 25.4 | – | –
25 | O=C(NCc1ccccc1)c1cc(Oc2cccc(Br)c2)ccc1NS(=O)(=O)c1ccc(F)c(F)c1 | 44.5 µM | 12.5 µM | 3.56 | – | –
26 | CCCOc1ccc(NS(=O)(=O)c2cccc3cccnc23)c(C(=O)NC(CC)CC)c1 | > 100 µM | 2.2 µM | > 45 | – | –
27 | CS(=O)(=O)Nc1ccc(Oc2cccc(Br)c2)cc1C(=O)NCc1ccc(F)c(F)c1 | 40.3 µM | 42.6 µM | – | – | inhibition (dengue virus type 2 [2]): inactive
28 | CCc1cccc(Oc2ccc(NS(=O)(=O)c3cccc4cccnc34)c(C(=O)NCc3ccc4c(c3)OCO4)c2)c1 | > 100 µM | 5.9 µM | > 16.9 | – | –
29 | CCCOc1ccc(NS(=O)(=O)c2cccc3cccnc23)c(C(=O)NCc2ccccc2)c1 | > 100 µM | – | – | – | log(activity) (dengue virus type 2 [7]): 3; Activity (dengue virus type 2 [8]): inactive; inhibition (dengue virus type 2 [9]): inactive; EC50 (dengue virus type 2 [10]): 1.09 µM; Activity (dengue virus type 2 [11]): Active; Activity (dengue virus type 2 [12]): Active; EC50 (dengue virus type 2 [13]): 20 µM; CC50 [14]: > 100 µM; Activity (dengue virus type 2 [15]): inactive; CC50 [16]: > 25 µM; EC50 (dengue virus type 2 [17]): > 10 µM; CC50 [18]: > 25 µM; CC50 [19]: > 100 µM; CC50 [20]: > 100 µM; Activity (dengue virus type 2 [21]): Active; EC50 (dengue virus type 2 [22]): 1.38 µM; EC50 (dengue virus type 2 [23]): 0.18 µM; Activity (dengue virus type 2 [24]): Active; CC50 [25]: > 100 µM
30 | O=C(NCc1ccc(F)c(F)c1)c1cc(Oc2cccc(Br)c2)ccc1NS(=O)(=O)c1cccc2cccnc12 | > 100 µM | 5.6 µM | > 17.8 | – | –
31 | COc1ccc(NS(=O)(=O)c2cccc3cccnc23)c(C(=O)NCc2ccccc2)c1 | > 100 µM | 4.8 µM | > 20.8 | – | –
32 | COc1ccc(C(=O)NCc2ccccc2)c(NS(=O)(=O)c2cccc3cccnc23)c1 | – | – | – | 0% | –
33 | COc1ccc(CNC(=O)c2cc(Oc3cccc(Br)c3)ccc2NS(C)(=O)=O)cc1OC | 100 µM | 48.8 µM | 2.05 | – | inhibition (dengue virus type 2 [2]): inactive
34 | O=C(NCc1ccccc1)c1cc(Oc2cccc(Br)c2)ccc1NS(=O)(=O)c1cccs1 | – | – | – | 0% | –
35 | C#C[C@@]1(O)[C@H](O)[C@@H](CO)O[C@H]1n1ccc2c(N)ncnc21 | – | 0.23 µM | 434 | – | –
36 | O=C(NCc1ccccc1)c1cc(Oc2cccc(Br)c2)ccc1NS(=O)(=O)N1CCOCC1 | – | – | – | 0% | –
37 | CCCOc1ccc(NC(=O)c2cccc3cccnc23)c(C(=O)NCc2ccccc2)c1 | > 100 µM | 5.6 µM | > 17 | – | –
38 | O=C(NCc1ccccc1)c1cc(Oc2cccc(Br)c2)ccc1NS(=O)(=O)c1cccnc1 | – | – | – | 12.5% | –
39 | CCCOc1ccc(NS(=O)(=O)c2cccc3cccnc23)c(C(=O)NC2CCCc3ccccc32)c1 (stereo not drawn) | > 100 µM | 1.9 µM | > 52.6 | – | –
